Values after ≈ are worked out from the molar mass of the structure shown.

The record followed here is patent US7932384B2, “Reverse-turn mimetics and method relating thereto” (Choongwae Pharma Corporation, priority 2001, dated 2011).

Holding throughout (assay type): cell-based
Assay [1] concerns caspase 3. Put plainly: Caspase 3 activity in cultured tumor cells. The following applies: 0.5 μM.
Assay [2] has as its system caspase 2. Put plainly: Caspase 2 activity in cultured tumor cells. To be noted: 0.5 μM.
Assay [3] deals with cultured tumor cells. Put plainly: Cell death of cultured tumor cells. To be noted: 0.5 μM.
Assay [4] concerns cultured tumor cells. Put plainly: FACS analysis of cells in G0, cultured tumor cells. The following applies: 0.5 μM.
In assay [5] the test system is survivin. Put plainly: Effects of compounds on survivin expression (Table 9). The following applies: for inhibition at 25 µM: Table 9, 25 uM; for inhibition at 5 µM: read-out: Survivin % inhibition 5 uM, Table 9, 5 uM. From the text: A plasmid containing luciferase under the control of surviving promoter was constructed and transfected into wild type, CBP+/−, or p300+/−3T3 cells.
(§1) The effects of various compounds having general formula (I) on surviving and TCF4 expression were characterized.

Assay [6] has as its system TCF4. Put plainly: Effects of compounds on TCF4 expression (Table 9).
Description: as §1

Assay [7] deals with 293. Put plainly: Sulforhodamine B (SRB) assay, 293. To be noted: Homo sapiens, HEK293; Renal, 293, 48 hours. The procedure: Growth inhibitory effect of Compound A on the cells listed below was measured by the sulforhodamine B assay. SW480 cells in 100 μl media were plated in each well of 96-well plate and allowed to attach for 24 hours. Compound A was added to the wells to produce the desired final concentrations, and the plates were incubated at 37° C. for 48 hours. The cells were then fixed by gentle addition of 100 μl of cold (4° C.) 10% trichloroacetic acid to each well, followed by incubation at 4° C. for 1 hour. Plates were washed with deionized water five times and allowed to air dry. The cells were then stained by addition of 100 μl SRB solution (0.4% SRB(w/v) in 1% acetic acid (v/v)) to wells for 15 min. After staining, the plates were quickly washed five times with 1% acetic acid to remove any unbound dye, and allowed to air dry. Bound dye was solubilized with 10 mmol/L Tris base (pH 10.5) prior to reading the plates. The optical density (OD) was read on a plate reader at a wavelength of 515 nm with Molecular Device. Inhibition of growth was expressed as relative viability (% of control) and GI50 was calculated from concentration-response curves after log/probit transformation.
The values in Table 6 are in μg/ml.
In general terms: In SRB staining, fixed cells bind dye roughly in proportion to their protein.

Assay [8] relates to surviving protein. Put plainly: Western blot analysis of survivin protein. The following applies: 5 μM. In general terms: Immunoblotting shows a protein as a band on a membrane.

As for `CN[C@@H]1C[C@H]2O[C@@](C)([C@@H]1OC)n1c3ccccc3c3c4c(c5c6ccccc6n2c5c31)C(=O)NC4` [stausporine, staurosporine, reference compound], in assay [1], the “caspase 3 activity” value is “increased both the caspase 2 and caspase 3 activities”. For the same compound, the “caspase 2 activity” value in assay [2] was “increased both the caspase 2 and caspase 3 activities”. Besides, the cell death result in assay [3] was “promote cell death”. Besides, the “number of cells in G0 (FACS)” value in assay [4] is given as “increase the number of cells in G0”.

For orientation: inhibition means the relative decrease from the control value, in per cent. What is called IC50 is the concentration at which inhibition is half-maximal. Low readings indicate higher potency, high ones lower potency. As for `CN1CC(=O)N2[C@@H](CN(Cc3c(Cl)cc(Cl)c4cccnc34)C(=O)[C@@H]2Cc2ccc(O)cc2)N1C(=O)NCc1ccccc1`, in assay [5], testing at 25 µM gave an inhibition of 58% and the inhibition at 5 µM worked out at 6%. Also, the midpoint of inhibition in assay [6], the IC50, lay at 11.2 ± 1.5 µM.

One may read the GI50 as the concentration giving 50% growth inhibition. Higher therefore signals less potent growth inhibition. In assay [7], `O=c1[nH]cc(F)c(=O)[nH]1` [Compound 5-FU, 5-fluorouracil, reference compound] displayed a GI50 of 2.02 µg/mL (≈ 15.5 µM). For the same compound, the “amount of survivin protein (Western blot)” value in assay [8] is “reduced the amount of the surviving protein”.

For `CN1CC(=O)N2[C@@H](CN(Cc3cccc4ccccc34)C(=O)[C@@H]2Cc2ccc(O)cc2)N1C(=O)NCc1ccccc1`, in assay [5], the inhibition at 25 µM stood at 99% and the inhibition at 5 µM came to 100%. For the same compound, in assay [6], the IC50 was approximately 2 µM.
